The text below walks through data of patent publication US8530183B2, “Zinc sensors for cellular imaging” (The Board of Regents of the University of Texas System, priority 2010, dated 2013).

The test system of series [1] is MIN6 cells. Kind of series: Cellular uptake and membrane labeling followed by confocal laser scanning microscopy. The class given is cell-based, mouse. As for the experimental part:
FIGS. 4A-F. ZIMIR labels plasma membranes of intact living cells rapidly, non-invasively and stably. ZIMIR (1 μM) was added to MIN6 cells in FIBS buffer (containing ˜1 μM Zn^2+ enhance fluorescence intensity). Confocal images (Ex 488 nm, Em 510-550 nm) were subsequently acquired at 2 min (FIG. 4A), 5 min (FIG. 4B), 10 min (FIG. 4C), and 20 min (FIG. 4D). Cells were then washed with FIBS buffer three times and imaged again at 21 min (FIG. 4E), and 140 min (FIG. 4F).
Cell culture and ZIMIR imaging by wide field fluorescence microscopy. Details of cell culture are described below. For cell imaging, we cultured cells in 35 mm petri dishes with glass-bottoms (MatTek, Ashland, Mass.). To label cells with ZIMIR, cells were washed with a Secretion Assay Buffer (SAB) containing 114 mM NaCl, 4.7 mM KCl, 1.2 mM KH2PO4, 2.5 mM CaCl2, 1.16 mM MgSO4, 3 mM glucose, and 20 mM HEPES (pH 7.4). The DMSO stock solution of ZIMIR. (1-2 mM) diluted in a small volume of SAB was added to cells to a final concentration of 1 μM. Cells were then incubated at ˜25° C. for 20 min and washed with SAB before imaging. To image insulin/Zn^2+ secretion, we routinely included 10 μM of EDTA in SAB to chelate the residual Zn^2+ and to reduce the baseline fluorescence. In addition, DPAS (2-4 μM) was added to SAB in some experiments to better resolve the dynamics of oscillatory insulin release.
ZIMIR uptake and Zn2+ response in live cells. To examine the cellular uptake of ZIMIR, the inventors used a mouse insulinoma cell line, MIN6 (Miyazaki et al., 1990). When ZIMIR was incubated with cells at 1 μM concentration, it rapidly adhered to the cell surface of intact living cells (data not shown). In order to test the specificity and stability of membrane labeling, the inventors used confocal laser scanning microscopy (CLSM) to follow the cellular uptake and distribution of ZIMIR in MIN6 cells (FIGS. 4A-F). Within 5 min after probe addition, there was already a clear accumulation of ZIMIR along the plasma membrane (FIGS. 4A-B). By 20 min, the cellular uptake of ZIMIR appeared to reach completion (FIGS. 4C-D). […]

Series [2] has as its system cultured mammalian cells. Kind of series: Growth rate of ZIMIR-labeled cells versus unlabeled cells (cytotoxicity). The class given is cell-based. As to conditions: over the next several days after labeling.
Series [3] has as its system pancreatic islets. Kind of series: Confocal imaging of dye uptake and insulin/Zn2+ release in pancreatic islets. The class given is cell-based, mouse. As for the experimental part: FIGS. 8A-C. Imaging insulin/Zn^2+ release in islets by confocal laser scanning microscopy. (FIGS. 8A-B) Confocal images of mouse islets labeled with ZIMIR (FIG. 8A) or calcein/AM (FIG. 8B). (FIG. 8C) Confocal ZIMIR imaging of insulin/Zn^2+ release in a mouse islet bathed in SAB. Images from two example layers 15 μm apart before and 10 sec post KCl (40 mM) stimulation were shown.
FIG. 11. ZIMIR rapidly labels cells of intact human islets. Representative CLSM images of a ZIMIR labeled human islet at three focal planes 20 μm apart.
Islets labeling and ZIMIR imaging by confocal laser scanning microscopy. Experiments with rodent animals were carried out according to protocols approved by the Institutional Animal Care and Use Committee of University of Texas Southwestern Medical Center. Rodent islets were isolated from Sprague-Dawley rats or C57BL/6 mice after digesting exocrine tissues of pancreas using collagenase as described below. To image insulin release in islets, the inventors labeled islets with ZIMIR (final concentration 2 μM with 0.025% Pluronic) in SAB buffer for […]. Labeled islets were then transferred to an imaging dish that had been coated with 0.5% PuraMatrix peptide hydrogel (BD Biosciences, Cat # 354250). Islets adhered to the PuraMatrix hydrogel within 5 min. They then imaged ZIMIR fluorescence by confocal laser scanning microscopy using a LSM510 imaging system (Carl Zeiss) and a 40× oil immersion objective (Dakin and Li, 2007).
Confocal imaging of ZIMIR uptake and insulin/Zn^2+ release in pancreatic islets. In addition to cultured cells, ZIMIR also rapidly and noninvasively labels cells in preparations such as dissected pancreatic islets. After loading islets with ZIMIR (2 μM) for 25 min, the inventors applied CLSM to track the distribution of ZIMIR in three dimensions (3D). […] The result confirmed that ZIMIR readily diffused through the interstitial space to reach interior cells, whereas calcein/AM was trapped by cells in the outer layer, unable to penetrate any deeper. After labeling, the inventors depolarized cells with high concentration of KCl.

Entries after “also recorded” stand apart in the source; their conditions may differ. Bounds are passed on as bounds.

`CCCCCCCCCCCCN(CC(=O)O)Cc1c2oc3c(CN(CCCCCCCCCCCC)CC(=O)O)c(O)ccc3c(-c3cc(NCCN(CCc4ccccn4)Cc4ccccn4)ccc3C(=O)O)c-2ccc1=O` [ZIMIR]: in series [1] (1 μM ZIMIR, MIN6 cells, CLSM), the “time to clear accumulation along the plasma membrane” value is no more than 5 min and the “time to completion of cellular uptake” value is reported as no more than 20 min. In series [1] (repetitive washings after labeling), the “membrane retention upon washing” value is on record as “did not change membrane fluorescence intensity”. Further, the “growth rate of labeled cells / cytotoxicity” value in series [2] is recorded as “same growth rate as unlabeled cells; also recorded: very little cytotoxicity”. For the same compound, the “distribution of dye in islets (3D, CLSM)” value in series [3] (ZIMIR 2 μM for 25 min, mouse and human islets) is given as “taken up by cells throughout the islets, from the mantle to the core”. Further, the “ZIMIR fluorescence change in islets upon KCl depolarization” value in series [3] (mouse islet, high concentration of KCl (40 mM)) was “robust and synchronized enhancement of ZIMIR fluorescence”.
